Patent publication US20230136075A1, “TREATMENT FOR SEPSIS-INDUCED ORGAN DYSFUNCTION” (The Florey Institute of Neuroscience and Mental Health, priority 2020, published 2023)

Test system: patients with septic shock
Experiment: Randomised, double-blind, placebo-controlled trial of mega-dose vitamin C for septic shock (Example 4)
Type: in vivo
Details: trial ongoing
From the text: A randomised, double-blind, placebo-controlled trial is being conducted to evaluate whether the administration of intravenous mega-dose vitamin C (60 g/day) increases urine output in patients with septic shock admitted to an intensive care unit (ICU).
Patients admitted to the Austin Hospital ICU with the primary diagnosis of septic shock defined according to the Sepsis-3 criteria are screened for eligibility. All the diagnostic criteria of septic shock (based on the SEPSIS-3 criteria) were to be fulfilled simultaneously within the last 24 hours, and vasopressors infused continuously at enrolment. Definition of sepsis is that of suspected or documented infection and an acute increase of ≥2 sequential organ failure assessment (SOFA) points consequent to the infection (a proxy of organ dysfunction). Definition of septic shock are sepsis and need for vasopressor therapy to keep mean arterial pressure (MAP) >65 mmHg for >2 hours and lactate >2 mmol/L, despite adequate fluid resuscitation.
All eligible patients with septic shock are randomised to receive either: • (i) Mega-dose Vitamin C intravenous infusion (sodium ascorbate 30 grams [100 ml] diluted with 150 ml of 5% dextrose infused intravenously over 1 hour followed by sodium ascorbate 30 grams [100 ml] diluted with 150 ml of 5% dextrose infused intravenously over 5 hours); or • (ii) Placebo intravenous infusion administered once (250 ml of 5% dextrose infused intravenously over 1 hour followed by 250 ml of 5% dextrose infused intravenously over 5 hours).
The study infusions are identical in appearance and are supplied in identical 250m1 5% dextrose bags prepared by ICU staff.
Vitamin C levels and arterial blood gas samples are measured at five time points (before loading infusion; after loading dose; 3 hours after the beginning of maintenance infusion; at the end of maintenance infusion; and, 24 hours following the beginning of the study infusion). A single urinary assessment is made of oxalate crystals obtained from testing a 24-hour collection of urine obtained at 24 hours following the beginning of the study infusion. Arterial blood gas samples are also measured to monitor for changes in serum sodium (Na+) and potassium (K+) levels at four time points (before loading infusion [baseline]; after loading dose; 3 hours after the beginning of maintenance infusion; and, at the end of maintenance infusion). The study infusion is stopped if the serum Na+ levels increases >10 mEq/L from the baseline value or absolute serum Na+ levels>160 mEq/L. Information is also collected on fluid balance, intravenous fluid therapy, use of vasopressor drugs and dosage, use of mechanical ventilation and renal replacement therapy and all biochemical and hematological and blood gas analysis variables as well as patient demographics, diagnosis, vital signs and illness severity score, ICU and hospital outcomes (e.g. admission and discharge dates as well as ICU and hospital survival status).
The primary efficacy outcome for this study is the cumulative urine output for 24 consecutive hours following the beginning of the study infusion.
Data analysis is performed on an intention-to-treat basis. Summary statistics are used to describe the clinical data and presented as mean±standard deviation, median with interquartile range (IQR) or percentages as appropriate. Chi-squared analysis with Fisher's exact test (as appropriate), and Student's t-test (Mann Whitney U test for non-normal distributions) are used to compare data between the active treatment group and the control group with statistical significance declared for probability values of less than 0.05. Analysis of the outcome of excluded patients due to other trials etc. is in accordance with CONSORT guidelines.

O=C1O[C@H]([C@@H](O)CO)C([O-])=C1O.[Na+] [sodium ascorbate]
body temperature (60 g/day iv): decreases
oxalate excretion in the urine (60 g/day iv): no evidence of increased oxalate excretion
requirement for vasopressor support (60 g/day iv): decreases
serum sodium levels (60 g/day iv): no evidence of increased oxalate excretion in the urine or increases in serum sodium levels
urinary output (60 g/day iv): increases
safety concern signal (sodium ascorbate 30 g over 1 hour then 30 g over 5 hours iv (60 g/day)): no safety concern signal
